Experimental data reported in US8394831B2, “Carbonylamino-derivatives as novel inhibitors of histone deacetylase” (Janssen Pharmaceutica, N.V., priority 2002, dated 2013).

What was measured:
[1] = system: A2780 ovarian carcinoma cells; assay: Antiproliferative activity on A2780 cells (MTT); assay type: cell-based, human; conditions: four days of incubation; for IC50: Homo sapiens, 96 h, read-out: Cellular activity pIC50 (converted)
Protocol: Cellular activity of the compounds of formula (I) was determined on A2780 tumour cells using a colorimetric assay for cell toxicity or survival (Mosmann Tim, Journal of Immunological Methods 65: 55-63, 1983)(see example C.2).
All compounds tested were dissolved in DMSO and further dilutions were made in culture medium. Final DMSO concentrations never exceeded 0.1% (v/v) in cell proliferation assays. Controls contained A2780 cells and DMSO without compound and blanks contained DMSO but no cells. MTT was dissolved at 5 mg/ml in PBS. A glycine buffer comprised of 0.1 M glycine and 0.1 M NaCl buffered to pH 10.5 with NaOH (1 N) was prepared (all reagents were from Merck).
The human A2780 ovarian carcinoma cells (a kind gift from Dr. T. C. Hamilton [Fox Chase Cancer Centre, Pennsylvania, USA]) were cultured in RPMI 1640 medium supplemented with 2 mM L-glutamine, 50 μg/ml gentamicin and 10% fetal calf serum. Cells were routinely kept as monolayer cultures at 37° C. in a humidified 5% CO2 atmosphere. Cells were passaged once a week using a trypsin/EDTA solution at a split ratio of 1:40. All media and supplements were obtained from Life Technologies. Cells were free of mycoplasma contamination as determined using the Gen-Probe Mycoplasma Tissue Culture kit (supplier: BioMérieux).
Cells were seeded in NUNC™ 96-well culture plates (Supplier: Life Technologies) and allowed to adhere to the plastic overnight. Densities used for plating were 1500 cells per well in a total volume of 200 μl medium. After cell adhesion to the plates, medium was changed and drugs and/or solvents were added to a final volume of 200 Following four days of incubation, medium was replaced by 200 μl fresh medium and cell density and viability was assessed using an MTT-based assay. To each well, 25 μl MTT solution was added and the cells were further incubated for 2 hours at 37° C. The medium was then carefully aspirated and the blue MTT-formazan product was solubilized by addition of 25 μl glycine buffer followed by 100 μl of DMSO. […] Within an experiment, the results for each experimental condition are the mean of 3 replicate wells. For initial screening purposes, compounds were tested at a single fixed concentration of 10^−6 M. For active compounds, the experiments were repeated to establish full concentration-response curves. For each experiment, controls (containing no drug) and a blank incubation (containing no cells or drugs) were run in parallel. The blank value was subtracted from all control and sample values. For each sample, the mean value for cell growth (in absorbance units) was expressed as a percentage of the mean value for cell growth of the control. […] Herein the effects of test compounds are expressed as pIC50 (the negative log value of the IC50-value).

[2] = molecular target: histone deacetylase (HeLa nuclear extracts); assay: In vitro assay for inhibition of histone deacetylase; assay type: biochemical; set-up: key: pIC50 = -log IC50; conditions: [3H]acetylated histone H4 peptide substrate
Protocol: The in vitro assay for inhibition of histone deacetylase (see example C.1) measures the inhibition of HDAC enzymatic activity obtained with the compounds of formula (I).
HeLa nuclear extracts (supplier: Biomol) were incubated at 60 μg/ml with 2×10^−8 M of radiolabeled peptide substrate. As a substrate for measuring HDAC activity a synthetic peptide, i.e. the amino acids 14-21 of histone H4, was used. The substrate is biotinylated at the NH2-terminal part with a 6-aminohexanoic acid spacer, and is protected at the COOH-terminal part by an amide group and specifically [^3H]acetylated at lysine 16. The substrate, biotin-(6-aminohexanoic)Gly-Ala-([^3H]-acetyl-Lys-Arg-His-Arg-Lys-Val-NH2), was added in a buffer containing 25 mM Hepes, 1 M sucrose, 0.1 mg/ml BSA and 0.01% Triton X-100 at pH 7.4. After 30 min the deacetylation reaction was terminated by the addition of HCl and acetic acid. (final concentration 0.035 mM and 3.8 mM respectively). After stopping the reaction, the free ^3H-acetate was extracted with ethylacetate. After mixing and centrifugation, the radioactivity in an aliquot of the upper (organic) phase was counted in a β-counter. For each experiment, controls (containing HeLa nuclear extract and DMSO without compound), a blank incubation (containing DMSO but no HeLa nuclear extract or compound) and samples (containing compound dissolved in DMSO and HeLa nuclear extract) were run in parallel. In first instance, compounds were tested at a concentration of 10^−5M. […] In each test the blank value was subtracted from both the control and the sample values. The control sample represented 100% of substrate deacetylation. For each sample the radioactivity was expressed as a percentage of the mean value of the controls. […] Herein the effects of test compounds are expressed as pIC50 (the negative log value of the IC50-value).

[3] = Kinetic solubility in aqueous media; assay type: physicochemical; conditions: aqueous buffer, kinetic from dmso stock; phosphate citrate buffer pH 7.4, turbidity by nephelometer; read-out: Solubility Score
Protocol: Kinetic solubility in aqueous media measures the ability of a compound to stay in aqueous solution upon dilution (see example C.3).
DMSO-stock solutions are diluted with a single aqueous buffer solvent in 3 consecutive steps. For every dilution turbidity is measured with a nephelometer.
In the first dilution step, 10 μl of a concentrated stock-solution of the active compound, solubilized in DMSO (5 mM), was added to 100 μl phosphate citrate buffer pH 7.4 and mixed. In the second dilution step, an aliquot (20 μl) of the first dilution step was further dispensed in 100 μl phosphate citrate buffer pH 7.4 and mixed. Finally, in the third dilution step, a sample (20 μl) of the second dilution step was further diluted in 100 μl phosphate citrate buffer pH 7.4 and mixed. All dilutions were performed in 96-well plates Immediately after the last dilution step the turbidity of the three consecutive dilution steps were measured with a nephelometer. Dilution was done in triplicate for each compound to exclude occasional errors. Based on the turbidity measurements a ranking is performed into 3 classes. Compounds with high solubility obtained a score of 3 and for this compounds the first dilution is clear. Compounds with medium solubility obtained a score of 2. For these compounds the first dilution is unclear and the second dilution is clear.

Cellular activity pIC50 [1] | Enzyme activity pIC50 [2] | IC50 [1] | solubility [3] | melting point | SMILES
5.86 | 6.951 |  |  |  | O=C(NO)c1ccc(N2CCC(NC(=O)c3cc4ccccc4cn3)CC2)nc1 [compound 6]
5.497 | 6.94 |  |  |  | O=C(NO)c1ccc(N2CCC(NC(=O)c3cc4cc(F)ccc4[nH]3)CC2)nc1 [compound 8]
5.664 | 6.861 |  |  |  | O=C(NO)c1ccc(N2CCC(NC(=O)c3ccc4ccccc4c3)CC2)nc1 [compound 5]
5.562 | 6.909 |  |  |  | O=C(CC(c1ccccc1)c1ccccc1)NC1CCN(c2ccc(C(=O)NO)cn2)CC1 [compound 12]
 | 5.649 | 4510 nM |  |  | O=C(NO)c1ccc(N2CCC(NC(=O)c3ccc4ccccc4c3)CC2)cc1 [Co. No. 1]
5.331 | 6.416 |  |  |  | Cn1c(C(=O)NC2CCN(c3ccc(C(=O)NO)cn3)CC2)cc2ccccc21 [compound 7]
 | 8.103 | 132 nM | < 75.8 µM | 226 °C | O=C(NO)c1cnc(N2CCC(CNC(=O)c3ccc4ccccc4c3)CC2)nc1 [Co. No. 3]
<5 | 7.061 |  |  |  | O=C(Cc1c[nH]c2ccccc12)NC1CCN(c2ccc(C(=O)NO)cn2)CC1 [compound 13]
5.175 | 6.611 |  |  |  | O=C(NO)c1ccc(N2CCC(NC(=O)C3CCc4ccccc43)CC2)nc1 (centres unmarked) [compound 14]
 | 6.794 | 1790 nM | > 454 µM |  | COc1cc(C(=O)NC2CCN(c3ccc(C(=O)NO)cn3)CC2)nc2ccccc12 [Co. No. 2]
5.747 | 7.19 |  |  |  | COc1ccc2[nH]c(C(=O)NC3CCN(c4ccc(C(=O)NO)cn4)CC3)cc2c1 [compound 10]
<5 | 6.215 |  |  |  | O=C(NO)c1cnc(N2CC[C@H](O)[C@H](CNS(=O)(=O)c3ccc4ccccc4c3)C2)nc1 [compound 11]
5.579 | 6.774 |  |  |  | Cn1cc(C(=O)NC2CCN(c3ccc(C(=O)NO)cn3)CC2)c2ccccc21 [compound 9]
